One experiment deals with endothelin-2. The experiment in a line: inhibition of endothelin-2 function.
Experiment [1] relates to superovulated mice. The experiment in a line: histological sections of ovaries collected 18 hours after hCG injection. Type of experiment: in vivo. On the procedure:
(§1) BQ788 was further tested to examine the manner in which this ETB antagonist reduced the number of oocytes. Histological sections of ovaries collected at 18 hours after hCG injection in superovulated mice that received either vehicle or BQ788 through i/p at 8 hours after hCG, were examined and found to have striking differences in the number of corpus lutea (photo not shown).

Experiment [2] has as its system superovulated mice. Kind of experiment: oocyte count after antagonist injection during superovulation. The class given is in vivo. To be noted: for decrease in number of oocytes: time effect. Here is the method: Pharmacological blockers of the endothelin receptor system were implemented to elucidate the role of ET-2 during superovulation. JKC301 (ETRA antagonist) and BQ788 (ETB antagonist) were injected 6 hours after hCG injection and an oocyte count was tabulated. […] BQ788 treatment was further investigated and found to have a time effect. BQ788 posted a 39%, 58%, and 66% decrease in number of oocytes at 4, 6 and 8 hours, respectively, after hCG injection.
as §1

For `CCCC[C@@H](NC(=O)[C@@H](Cc1cn(C(=O)OC)c2ccccc12)NC(=O)[C@H](CC(C)(C)C)NC(=O)N1[C@H](C)CCC[C@@H]1C)C(=O)O` [BQ788, N-cis-2,6-dimethylpiperidinocarbonyl-L-gamma-methylleucyl-D-1-methoxycarbonyltryptophanyl-D-norleucine], the “function of endothelin-2” value in the experiment on endothelin-2 is “inhibits function of endothelin-2”. For the same compound, in the experiment on superovulated mice [1] (given at 8 hours, a stage very close to the ovulation), the inhibition of ovulation result was “inhibition of ovulation by blocking follicle rupture in the ovary”. For the same compound, the “number of corpus lutea and unruptured follicles in ovary sections” value in the experiment with superovulated mice [1] (i/p at 8 hours after hCG, ovaries collected at 18 hours after hCG, versus vehicle) is “few corpus lutea and numerous unruptured follicles”. The “decrease in the number of oocytes” value with superovulated mice [2] (antagonist injected 6 hours after hCG injection, comparison of JKC301 and BQ788) amounted to 65%. The “decrease in number of oocytes” value in the experiment on superovulated mice [2] (BQ788 given 4 hours after hCG injection) worked out at 39%; in the experiment on superovulated mice [2] (BQ788 given 6 hours after hCG injection), 58%; in the experiment with superovulated mice [2] (BQ788 given 8 hours after hCG injection), 66%.

Source of the values: patent US8173593B2, “Methods and compositions for emergency contraception using endothelin receptor antagonists” (The Population Council, Inc., priority 2005, dated 2012).
